Data from patent US20070275962A1, “Heterobicyclic Compounds as Pharmaceutically Active Agents” (GPC BIOTECH AG, priority 2003, published 2007).

Assays:
Assay type in all cases: biochemical
CDK1/CycB act.GST-HIS = CDK1/CycB act.GST-HIS (Homo sapiens, UniProt P06493); assay: General kinase assay: CDK1/CycB; settings: concentration 10 μM; read-out: Inhibitory effect on Target CDK1/CycB act.GST-HIS
Method: (§1) General Assay Protocol for all Kinases [[[…]]] [[[…]]] Reaction Buffer: Final Assay Concentrations: [[[…]]] Pipetting Sequence: • 1) Add 8 μl 50 μM MBP in Reaction Buffer to each well of Assay Plate • 2) Add 10 μl 500 mM EDTA in H2O to C- wells • 3) Add 8 μl 62.5 μCi/ml Adenosine 5'-[γ-^33P]triphosphate+5 μM ATP in Reaction Buffer to each well • 4) Add 8 μl 5 fold concentrated inhibitor in 5% DMSO in Reaction Buffer to each well except to C- and C+ wells • 5) Add 8 μl 5% DMSO in Reaction Buffer to C- and C+ wells • 6) Add 8 μl 5 fold concentrated kinase in Reaction Buffer to each well • 7) Incubate 1 hr at room temperature • 8) Add 10 μl 50 mM EDTA in H2O to each well except to C- wells • 9) Prepare MAPH plates by adding 200 μl 0.75% H3PO4 to each well • 10) Exhaust 0.75% H3PO4 using Millipore vacuum station • 11) Add 60 μl 0.75% H3PO4 to each well of MAPH Filter Plate • 12) Transfer 30 μl sample per well from Assay Plate to corresponding well of MAPH Filter Plate • 13) Incubate 30 min at room temperature • 14) Wash each well of MAPH Filter Plates 3× with 200 μl 0.75% H3PO4 using Millipore vacuum station • 15) Add 20 μl Szintilation Liquid to each well of MAPH Filter Plate • 16) Seal MAPH Filter Plate • 17) Store MAPH Filter Plate 30 min in darkness • 18) Quantify radioactivity

Kit human GST = molecular target: T1, Kit human GST (Homo sapiens, UniProt P10721); assay: General kinase assay: Kit; settings: concentration 10 μM; read-out: Inhibitory effect on Target Kit human GST
T1 construct: GST
T1 sequence (P10721 26-976): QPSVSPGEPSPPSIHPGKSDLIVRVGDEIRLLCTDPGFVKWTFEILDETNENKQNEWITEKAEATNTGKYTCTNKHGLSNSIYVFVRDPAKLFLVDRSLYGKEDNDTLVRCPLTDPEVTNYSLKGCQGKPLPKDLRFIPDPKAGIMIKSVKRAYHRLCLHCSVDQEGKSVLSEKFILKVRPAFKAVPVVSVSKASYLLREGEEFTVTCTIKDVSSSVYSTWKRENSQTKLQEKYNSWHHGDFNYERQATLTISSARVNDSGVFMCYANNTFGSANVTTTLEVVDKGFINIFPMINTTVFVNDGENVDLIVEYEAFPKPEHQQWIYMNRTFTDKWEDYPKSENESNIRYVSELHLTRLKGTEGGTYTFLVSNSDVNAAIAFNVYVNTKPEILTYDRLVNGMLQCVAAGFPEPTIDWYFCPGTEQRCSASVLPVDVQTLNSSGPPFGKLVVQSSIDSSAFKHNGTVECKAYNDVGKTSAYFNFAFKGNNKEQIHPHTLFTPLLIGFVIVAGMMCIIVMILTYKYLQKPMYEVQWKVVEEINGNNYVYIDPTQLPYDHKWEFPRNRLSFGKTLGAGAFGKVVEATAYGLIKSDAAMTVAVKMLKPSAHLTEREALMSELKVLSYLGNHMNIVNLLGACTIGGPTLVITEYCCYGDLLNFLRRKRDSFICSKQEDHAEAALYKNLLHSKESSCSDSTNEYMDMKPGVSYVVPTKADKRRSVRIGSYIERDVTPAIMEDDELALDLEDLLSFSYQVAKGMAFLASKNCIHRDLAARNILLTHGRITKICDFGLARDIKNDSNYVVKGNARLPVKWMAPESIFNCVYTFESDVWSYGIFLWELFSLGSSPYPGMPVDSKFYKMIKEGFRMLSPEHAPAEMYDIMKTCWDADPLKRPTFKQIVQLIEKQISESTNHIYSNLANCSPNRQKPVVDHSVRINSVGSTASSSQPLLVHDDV
Method: as §1

PDGFRbeta GST = molecular target: T2, PDGFRbeta GST (Homo sapiens, UniProt P09619); assay: General kinase assay: PDGFRbeta; settings: concentration 10 μM; read-out: Inhibitory effect on Target PDGFRbeta GST
T2 construct: GST
T2 sequence (P09619 33-1106): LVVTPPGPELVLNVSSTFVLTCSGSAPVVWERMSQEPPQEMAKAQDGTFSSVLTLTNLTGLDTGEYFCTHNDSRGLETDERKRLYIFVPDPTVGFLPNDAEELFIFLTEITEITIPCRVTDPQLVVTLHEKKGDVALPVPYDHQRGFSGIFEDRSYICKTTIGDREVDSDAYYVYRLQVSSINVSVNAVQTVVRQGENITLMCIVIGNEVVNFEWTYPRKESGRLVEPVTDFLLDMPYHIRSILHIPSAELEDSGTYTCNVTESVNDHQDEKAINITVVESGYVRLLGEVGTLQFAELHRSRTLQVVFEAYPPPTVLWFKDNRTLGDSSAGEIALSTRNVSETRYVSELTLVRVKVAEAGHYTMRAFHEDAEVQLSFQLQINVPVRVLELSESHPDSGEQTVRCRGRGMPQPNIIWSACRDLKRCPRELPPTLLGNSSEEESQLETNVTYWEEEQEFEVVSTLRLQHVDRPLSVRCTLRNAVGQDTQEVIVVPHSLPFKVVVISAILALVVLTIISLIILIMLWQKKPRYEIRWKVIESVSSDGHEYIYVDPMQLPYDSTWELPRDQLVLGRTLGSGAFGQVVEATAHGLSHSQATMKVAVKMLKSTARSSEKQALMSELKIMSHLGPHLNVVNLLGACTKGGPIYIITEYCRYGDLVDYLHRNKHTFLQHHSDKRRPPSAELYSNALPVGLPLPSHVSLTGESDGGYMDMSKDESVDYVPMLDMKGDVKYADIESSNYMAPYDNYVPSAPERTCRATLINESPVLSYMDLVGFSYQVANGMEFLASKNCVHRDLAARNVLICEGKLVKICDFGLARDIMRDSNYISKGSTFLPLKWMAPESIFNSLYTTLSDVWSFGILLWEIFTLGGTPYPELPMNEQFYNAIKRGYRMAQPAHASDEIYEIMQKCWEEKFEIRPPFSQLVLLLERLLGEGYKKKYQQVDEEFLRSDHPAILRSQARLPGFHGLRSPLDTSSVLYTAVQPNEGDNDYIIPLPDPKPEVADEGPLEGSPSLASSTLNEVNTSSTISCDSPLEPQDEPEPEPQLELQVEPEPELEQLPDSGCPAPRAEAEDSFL
Method: as §1

SRPK1 GST = molecular target: T3, SRPK1 GST (Homo sapiens, UniProt Q96SB4); assay: General kinase assay: SRPK1; settings: concentration 10 μM; read-out: Inhibitory effect on Target SRPK1 GST
T3 construct: GST
T3 sequence (Q96SB4 whole entry): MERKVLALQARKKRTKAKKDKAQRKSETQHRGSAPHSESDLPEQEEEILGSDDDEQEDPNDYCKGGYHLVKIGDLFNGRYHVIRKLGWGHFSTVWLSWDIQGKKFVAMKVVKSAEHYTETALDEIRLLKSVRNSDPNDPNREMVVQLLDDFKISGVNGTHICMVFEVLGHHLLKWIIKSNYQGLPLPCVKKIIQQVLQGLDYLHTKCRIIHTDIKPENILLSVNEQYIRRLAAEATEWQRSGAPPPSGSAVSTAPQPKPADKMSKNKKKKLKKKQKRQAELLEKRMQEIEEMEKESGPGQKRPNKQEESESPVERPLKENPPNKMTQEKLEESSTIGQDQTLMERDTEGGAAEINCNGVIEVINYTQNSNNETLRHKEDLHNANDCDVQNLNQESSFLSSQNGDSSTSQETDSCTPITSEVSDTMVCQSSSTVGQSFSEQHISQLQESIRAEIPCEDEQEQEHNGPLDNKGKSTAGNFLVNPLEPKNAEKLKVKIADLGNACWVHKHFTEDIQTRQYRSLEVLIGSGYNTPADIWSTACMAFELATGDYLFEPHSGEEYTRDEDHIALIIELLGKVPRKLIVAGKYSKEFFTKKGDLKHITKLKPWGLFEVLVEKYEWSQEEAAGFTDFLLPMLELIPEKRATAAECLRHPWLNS
Method: as §1

Chain of CDK1/CycB act.GST-HIS (P06493 whole entry, species assumed): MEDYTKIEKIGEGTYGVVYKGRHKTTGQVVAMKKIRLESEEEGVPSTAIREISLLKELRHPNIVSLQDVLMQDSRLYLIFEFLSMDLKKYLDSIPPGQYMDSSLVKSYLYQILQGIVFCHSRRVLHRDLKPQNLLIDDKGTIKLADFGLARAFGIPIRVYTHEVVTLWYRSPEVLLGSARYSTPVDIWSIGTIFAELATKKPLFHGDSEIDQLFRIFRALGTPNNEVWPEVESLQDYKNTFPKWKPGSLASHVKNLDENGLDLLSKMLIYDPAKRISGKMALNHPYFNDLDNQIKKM
Chain of CDK1/CycB act.GST-HIS (P14635 whole entry partner, species assumed): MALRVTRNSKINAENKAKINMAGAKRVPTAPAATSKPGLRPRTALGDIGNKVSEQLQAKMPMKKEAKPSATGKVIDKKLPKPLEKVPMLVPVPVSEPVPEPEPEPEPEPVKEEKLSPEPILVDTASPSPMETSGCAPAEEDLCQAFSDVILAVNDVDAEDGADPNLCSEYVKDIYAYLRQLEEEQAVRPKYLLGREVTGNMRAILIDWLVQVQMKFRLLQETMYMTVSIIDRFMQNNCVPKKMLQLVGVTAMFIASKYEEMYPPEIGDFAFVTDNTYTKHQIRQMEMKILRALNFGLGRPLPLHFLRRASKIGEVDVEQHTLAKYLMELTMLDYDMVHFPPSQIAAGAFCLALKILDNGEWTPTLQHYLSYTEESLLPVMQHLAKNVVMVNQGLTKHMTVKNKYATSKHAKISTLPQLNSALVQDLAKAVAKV

inhibition at 10 µM (CDK1/CycB act.GST-HIS): > 50%
inhibition at 10 µM (Kit human GST): > 50%
inhibition at 10 µM (PDGFRbeta GST): > 50%
inhibition at 10 µM (SRPK1 GST): > 50%
SMILES: NC(=O)c1c(NC(=O)Nc2ccc(F)cc2)sc2c1CCOC2 [Compound B13, 2-[3-(4-Fluoro-phenyl)-ureido]-4,7-dihydro-5H-thieno[2,3-c]pyran-3-carboxylic acid amide]
